From the NIST ThermoML archive (doi:10.1016/j.jct.2005.06.001)
Values joined by “and” are separate entries in the source; they are usually repeats but may differ in a detail not shown here. Equal values may be shown once. ± gives the expanded uncertainty stated by the source.

Conditions: Crystal; for vapor or sublimation pressure: Calculated from knudsen effusion weight loss; for Normal melting temperature: visual observation

Cc1c2ccccc2c(C)c2ccccc12 [9,10-dimethylanthracene]
Conditions	Normal melting temperature [°C]	vapor or sublimation pressure
–	186.4 ± 0.5	–
363.18 K	–	0.000229 ± 1.1e-05 kPa and 0.000242 ± 1.2e-05 kPa and 0.000213 ± 1.1e-05 kPa
365.2 K	–	0.000287 ± 1.4e-05 kPa and 0.000302 ± 1.5e-05 kPa and 0.000271 ± 1.4e-05 kPa
367.18 K	–	0.000344 ± 1.7e-05 kPa and 0.00036 ± 1.8e-05 kPa and 0.000332 ± 1.7e-05 kPa
369.18 K	–	0.000444 ± 2.2e-05 kPa and 0.00041 ± 2.1e-05 kPa and 0.000425 ± 2.1e-05 kPa
371.2 K	–	0.000498 ± 2.5e-05 kPa and 0.00053 ± 2.7e-05 kPa and 0.000494 ± 2.5e-05 kPa
373.19 K	–	0.000613 ± 3.1e-05 kPa and 0.000654 ± 3.3e-05 kPa and 0.00061 ± 3.1e-05 kPa
375.18 K	–	0.000736 ± 3.7e-05 kPa and 0.000761 ± 3.8e-05 kPa and 0.00071 ± 3.6e-05 kPa
377.17 K	–	0.00088 ± 4.4e-05 kPa and 0.000913 ± 4.6e-05 kPa and 0.000841 ± 4.2e-05 kPa
378.98 K	–	0.001057 ± 0.00011 kPa and 0.001092 ± 0.00011 kPa and 0.001008 ± 0.0001 kPa

Cc1c2ccccc2cc2ccccc12 [9-methylanthracene]
Conditions	Normal melting temperature [°C]	vapor or sublimation pressure
–	81.7 ± 0.5	–
329.16 K	–	0.000185 ± 9e-06 kPa and 0.000194 ± 1e-05 kPa and 0.000184 ± 9e-06 kPa
331.19 K	–	0.000237 ± 1.2e-05 kPa and 0.000244 ± 1.2e-05 kPa and 0.000236 ± 1.2e-05 kPa
333.17 K	–	0.000271 ± 1.4e-05 kPa and 0.000297 ± 1.5e-05 kPa and 0.000286 ± 1.4e-05 kPa
335.16 K	–	0.00036 ± 1.8e-05 kPa and 0.00035 ± 1.8e-05 kPa and 0.000345 ± 1.7e-05 kPa
337.15 K	–	0.000427 ± 2.1e-05 kPa and 0.00045 ± 2.3e-05 kPa and 0.000435 ± 2.2e-05 kPa
339.16 K	–	0.000562 ± 2.8e-05 kPa and 0.000577 ± 2.9e-05 kPa and 0.000559 ± 2.8e-05 kPa
341.17 K	–	0.000666 ± 3.3e-05 kPa and 0.000681 ± 3.4e-05 kPa and 0.00066 ± 3.3e-05 kPa
343.21 K	–	0.000829 ± 4.2e-05 kPa and 0.000851 ± 4.3e-05 kPa and 0.000821 ± 4.1e-05 kPa
345.19 K	–	0.001004 ± 0.0001 kPa and 0.00104 ± 0.00011 kPa and 0.001011 ± 0.0001 kPa

CCc1ccc2cc3ccccc3cc2c1 [2-ethylanthracene]
Conditions	Normal melting temperature [°C]	vapor or sublimation pressure
–	154.5 ± 0.5	–
343.27 K	–	0.000164 ± 8e-06 kPa and 0.000165 ± 8e-06 kPa
345.13 K	–	0.000203 ± 1e-05 kPa and 0.0002 ± 1e-05 kPa
347.1 K	–	0.000239 ± 1.2e-05 kPa and 0.000235 ± 1.2e-05 kPa and 0.000241 ± 1.2e-05 kPa
349.26 K	–	0.000306 ± 1.5e-05 kPa and 0.000309 ± 1.5e-05 kPa and 0.000301 ± 1.5e-05 kPa
351.15 K	–	0.000378 ± 1.9e-05 kPa and 0.000372 ± 1.9e-05 kPa and 0.00037 ± 1.9e-05 kPa
353.11 K	–	0.000465 ± 2.3e-05 kPa and 0.000456 ± 2.3e-05 kPa and 0.000458 ± 2.3e-05 kPa
355.27 K	–	0.00056 ± 2.8e-05 kPa and 0.000562 ± 2.8e-05 kPa and 0.000569 ± 2.9e-05 kPa
357.07 K	–	0.000684 ± 3.4e-05 kPa and 0.000668 ± 3.3e-05 kPa
359.05 K	–	0.000828 ± 4.1e-05 kPa and 0.000833 ± 4.2e-05 kPa and 0.000824 ± 4.1e-05 kPa
